Source: patent publication US20220251141A1, “IMMUNOMODULATORS” (Bristol-Myers Squibb Company, priority 2019, published 2022)
pIC50: −log10 of the molar value. Numbered stars: 1 amine (or outer) side, 2 acyl side, 3 side chain; on linkers, the order of the positions; unused ones are H or OH. Bridge positions count the residues as written; N and C are the ends. Square brackets hold non-standard residues; d marks the D form. Side chains are listed from the residue outwards. Peptide text beside a SMILES is read from it. * marks the point of attachment. Trp(1-CH2CO2Me) = COC(=O)Cn1cc(C[C@H](N)C(=O)O)c2ccccc21; Trp(1-CH2COOH) = N[C@@H](Cc1cn(CC(=O)O)c2ccccc12)C(=O)O; X5 = CN(C)S(=O)(=O)NCC[C@H](N[*:1])C(=O)[*:2]; X4 = CN(C)S(=O)(=O)NC[C@H](N[*:1])C(=O)[*:2]; X15 = CCNC(=S)NCC[C@H](N[*:1])C(=O)[*:2]; X12 = CNC(=S)NCC[C@H](N[*:1])C(=O)[*:2]; X14 = CCNC(=S)NC[C@H](N[*:1])C(=O)[*:2]; X11 = CNC(=S)NC[C@H](N[*:1])C(=O)[*:2]; Dab(CONH2) = NC(=O)NCC[C@H](N)C(=O)O; X9 = N#CNCC[C@H](N[*:1])C(=O)[*:2]; X8 = N#CNC[C@H](N[*:1])C(=O)[*:2]; Hyp = O=C(O)[C@@H]1C[C@@H](O)CN1; NMeNle = CCCC[C@H](NC)C(=O)O; NMeA = CN[C@@H](C)C(=O)O; Dab = NCC[C@H](N)C(=O)O; Dap = NC[C@H](N)C(=O)O; Boc = CC(C)(C)OC(=O)*; X10 = CC(C)(C)SC(=O)*; CO = O=C([*:1])[*:2]; Moc = COC(=O)*

Target: T1, PD-1/PD-L1 (Homo sapiens, UniProt Q9NZQ7)
T1 construct: TVMV protease site linker (C); made in house; host or cells: HEK293T cells
Assay: PD-1/PD-L1 Homogenous Time-Resolved Fluorescence (HTRF) binding assay
Details: PD-L1-His 10 nM final, PD-1-Ig 20 nM final; inhibitors pre-incubated with PD-L1-His for 15 m
Excerpt: The ability of the compounds of formula (I) to bind to PD-L1 was investigated using a PD-1/PD-L1 Homogenous Time-Resolved Fluorescence (HTRF) binding assay.
The interaction of PD-1 and PD-L1 can be assessed using soluble, purified preparations of the extracellular domains of the two proteins. The PD-1 and PD-L1 protein extracellular domains were expressed as fusion proteins with detection tags, for PD-1, the tag was the Fc portion of Immunoglobulin (PD-1-Ig) and for PD-L1 it was the 6 histidine motif (PD-L1-His). All binding studies were performed in an HTRF assay buffer consisting of dPBS supplemented with 0.1% […] bovine serum albumin and 0.05% (v/v) Tween-20. For the h/PD-L1-His binding assay, inhibitors were pre-incubated with PD-L1-His (10 nM final) for 15 m in 4 μl of assay buffer, followed by addition of PD-1-Ig (20 nM final) in 1 μl of assay buffer and further incubation for 15 m. HTRF detection was achieved using europium cryptate-labeled anti-Ig (1 nM final) and allophycocyanin (APC) labeled anti-His (20 nM final). Antibodies were diluted in HTRF detection buffer and 5 μl was dispensed on top of the binding reaction. The reaction mixture was allowed to equilibrate for 30 minutes and the resulting signal (665 nm/620 nm ratio) was obtained using an EnVision fluorometer. Additional binding assays were established between the human proteins PD-1-Ig/PD-L2-His (20 & 5 nM, respectively) and CD80-His/PD-L1-Ig (100 & 10 nM, respectively).
Recombinant Proteins: Human PD-1 (25-167) with a C-terminal human Fc domain of immunoglobulin G (Ig) epitope tag [hPD-1 (25-167)-3S-IG] and human PD-L1 (18-239) with a C-terminal His epitope tag [hPD-L1(18-239)-TVMV-His] were expressed in HEK293T cells and purified sequentially by Protein A affinity chromatography and size exclusion chromatography. Human PD-L2-His and CD80-His was obtained through commercial sources.
Table 3 lists the IC50 values for representative examples of this disclosure measured in the PD-1/PD-L1 Homogenous Time-Resolved Fluorescence (HTRF) binding assay.

`CCCC[C@H]1C(=O)N(C)[C@@H](CCCC)C(=O)N[C@@H](CC(C)C)C(=O)N[C@H](C(=O)NCC(N)=O)CSCC(=O)N[C@@H](Cc2ccc(O)cc2)C(=O)N(C)[C@@H](C)C(=O)N[C@@H](CC(N)=O)C(=O)N2CCC[C@H]2C(=O)N[C@@H](CNC(=O)OC)C(=O)N[C@@H](CC(C)C)C(=O)N2C[C@H](O)C[C@H]2C(=O)N[C@@H](Cc2c[nH]c3ccccc23)C(=O)N[C@@H](CCNC(=O)OC)C(=O)N[C@@H](Cc2cn(CC(=O)OC)c3ccccc23)C(=O)N1C` [Example 1017] ({CH2CO}-Y[NMeA]NP[Dap](Moc)L[Hyp]W[Dab](Moc)[Trp(1-CH2CO2Me)][NMeNle][NMeNle]LCG-NH2; thioether N-14) was tested, and the pIC50 was 8.23.
In the case of `CCCC[C@H]1C(=O)N(C)[C@@H](CCCC)C(=O)N[C@@H](CC(C)C)C(=O)N[C@H](C(=O)NCC(N)=O)CSCC(=O)N[C@@H](Cc2ccc(O)cc2)C(=O)N(C)[C@@H](C)C(=O)N[C@@H](CC(N)=O)C(=O)N2CCC[C@H]2C(=O)N[C@@H](CNC(=O)OC(C)(C)C)C(=O)N[C@@H](CC(C)C)C(=O)N2C[C@H](O)C[C@H]2C(=O)N[C@@H](Cc2c[nH]c3ccccc23)C(=O)N[C@@H](CCNC(N)=O)C(=O)N[C@@H](Cc2cn(CC(=O)O)c3ccccc23)C(=O)N1C` [Example 1018] ({CH2CO}-Y[NMeA]NP[Dap](Boc)L[Hyp]W[Dab(CONH2)][Trp(1-CH2COOH)][NMeNle][NMeNle]LCG-NH2; thioether N-14), the pIC50 was 8.54.
`CCCC[C@H]1C(=O)N(C)[C@@H](CCCC)C(=O)N[C@@H](CC(C)C)C(=O)N[C@H](C(=O)NCC(N)=O)CSCC(=O)N[C@@H](Cc2ccc(O)cc2)C(=O)N(C)[C@@H](C)C(=O)N[C@@H](CC(N)=O)C(=O)N2CCC[C@H]2C(=O)N[C@@H](CNC#N)C(=O)N[C@@H](CC(C)C)C(=O)N2C[C@H](O)C[C@H]2C(=O)N[C@@H](Cc2c[nH]c3ccccc23)C(=O)N[C@@H](CCNC#N)C(=O)N[C@@H](Cc2cn(CC(=O)O)c3ccccc23)C(=O)N1C` [Example 1019] ({CH2CO}-Y[NMeA]NP[X8]L[Hyp]W[X9][Trp(1-CH2COOH)][NMeNle][NMeNle]LCG-NH2; thioether N-14) showed a pIC50 of 8.92.
`CCCC[C@H]1C(=O)N(C)[C@@H](CCCC)C(=O)N[C@@H](CC(C)C)C(=O)N[C@H](C(=O)NCC(N)=O)CSCC(=O)N[C@@H](Cc2ccc(O)cc2)C(=O)N(C)[C@@H](C)C(=O)N[C@@H](CC(N)=O)C(=O)N2CCC[C@H]2C(=O)N[C@@H](CNC#N)C(=O)N[C@@H](CC(C)C)C(=O)N2C[C@H](O)C[C@H]2C(=O)N[C@@H](Cc2c[nH]c3ccccc23)C(=O)N[C@@H](CCNC#N)C(=O)N[C@@H](Cc2cn(CC(=O)OC)c3ccccc23)C(=O)N1C` [Example 1020] ({CH2CO}-Y[NMeA]NP[X8]L[Hyp]W[X9][Trp(1-CH2CO2Me)][NMeNle][NMeNle]LCG-NH2; thioether N-14) gave a pIC50 of 8.15.
For `CCCC[C@H]1C(=O)N(C)[C@@H](CCCC)C(=O)N[C@@H](CC(C)C)C(=O)N[C@H](C(=O)NCC(N)=O)CSCC(=O)N[C@@H](Cc2ccc(O)cc2)C(=O)N(C)[C@@H](C)C(=O)N[C@@H](CC(N)=O)C(=O)N2CCC[C@H]2C(=O)N[C@@H](CNC#N)C(=O)N[C@@H](CC(C)C)C(=O)N2C[C@H](O)C[C@H]2C(=O)N[C@@H](Cc2c[nH]c3ccccc23)C(=O)N[C@@H](CCN)C(=O)N[C@@H](Cc2cn(CC(=O)O)c3ccccc23)C(=O)N1C` [Example 1021] ({CH2CO}-Y[NMeA]NP[X8]L[Hyp]W[Dab][Trp(1-CH2COOH)][NMeNle][NMeNle]LCG-NH2; thioether N-14), the pIC50 was 7.28.
Work on `CCCC[C@H]1C(=O)N(C)[C@@H](CCCC)C(=O)N[C@@H](CC(C)C)C(=O)N[C@H](C(=O)NCC(N)=O)CSCC(=O)N[C@@H](Cc2ccc(O)cc2)C(=O)N(C)[C@@H](C)C(=O)N[C@@H](CC(N)=O)C(=O)N2CCC[C@H]2C(=O)N[C@@H](CNS(=O)(=O)N(C)C)C(=O)N[C@@H](CC(C)C)C(=O)N2C[C@H](O)C[C@H]2C(=O)N[C@@H](Cc2c[nH]c3ccccc23)C(=O)N[C@@H](CCNS(=O)(=O)N(C)C)C(=O)N[C@@H](Cc2cn(CC(=O)O)c3ccccc23)C(=O)N1C` [Example 1022] ({CH2CO}-Y[NMeA]NP[X4]L[Hyp]W[X5][Trp(1-CH2COOH)][NMeNle][NMeNle]LCG-NH2; thioether N-14) yielded a pIC50 of 7.82.
In the case of `CCCC[C@H]1C(=O)N(C)[C@@H](CCCC)C(=O)N[C@@H](CC(C)C)C(=O)N[C@H](C(=O)NCC(N)=O)CSCC(=O)N[C@@H](Cc2ccc(O)cc2)C(=O)N(C)[C@@H](C)C(=O)N[C@@H](CC(N)=O)C(=O)N2CCC[C@H]2C(=O)N[C@@H](CNS(=O)(=O)N(C)C)C(=O)N[C@@H](CC(C)C)C(=O)N2C[C@H](O)C[C@H]2C(=O)N[C@@H](Cc2c[nH]c3ccccc23)C(=O)N[C@@H](CCN)C(=O)N[C@@H](Cc2cn(CC(=O)O)c3ccccc23)C(=O)N1C` [Example 1023] ({CH2CO}-Y[NMeA]NP[X4]L[Hyp]W[Dab][Trp(1-CH2COOH)][NMeNle][NMeNle]LCG-NH2; thioether N-14), the pIC50 was 8.17.
Work on `CCCC[C@H]1C(=O)N(C)[C@@H](CCCC)C(=O)N[C@@H](CC(C)C)C(=O)N[C@H](C(=O)NCC(N)=O)CSCC(=O)N[C@@H](Cc2ccc(O)cc2)C(=O)N(C)[C@@H](C)C(=O)N[C@@H](CC(N)=O)C(=O)N2CCC[C@H]2C(=O)N[C@@H](CNC(=O)SC(C)(C)C)C(=O)N[C@@H](CC(C)C)C(=O)N2C[C@H](O)C[C@H]2C(=O)N[C@@H](Cc2c[nH]c3ccccc23)C(=O)N[C@@H](CCNC(=O)OC)C(=O)N[C@@H](Cc2cn(CC(=O)O)c3ccccc23)C(=O)N1C` [Example 1024] ({CH2CO}-Y[NMeA]NP[Dap](X10)L[Hyp]W[Dab](Moc)[Trp(1-CH2COOH)][NMeNle][NMeNle]LCG-NH2; thioether N-14) yielded a pIC50 of 8.33.
For `CCCC[C@H]1C(=O)N(C)[C@@H](CCCC)C(=O)N[C@@H](CC(C)C)C(=O)N[C@H](C(=O)NCC(N)=O)CSCC(=O)N[C@@H](Cc2ccc(O)cc2)C(=O)N(C)[C@@H](C)C(=O)N[C@@H](CC(N)=O)C(=O)N2CCC[C@H]2C(=O)N[C@@H](CNC(=O)SC(C)(C)C)C(=O)N[C@@H](CC(C)C)C(=O)N2C[C@H](O)C[C@H]2C(=O)N[C@@H](Cc2c[nH]c3ccccc23)C(=O)N[C@@H](CCNC(=O)SC(C)(C)C)C(=O)N[C@@H](Cc2cn(CC(=O)OC)c3ccccc23)C(=O)N1C` [Example 1025] ({CH2CO}-Y[NMeA]NP[Dap](X10)L[Hyp]W[Dab](X10)[Trp(1-CH2CO2Me)][NMeNle][NMeNle]LCG-NH2; thioether N-14), the pIC50 was 8.22.
Compound `CCCC[C@H]1C(=O)N(C)[C@@H](CCCC)C(=O)N[C@@H](CC(C)C)C(=O)N[C@H](C(=O)NCC(N)=O)CSCC(=O)N[C@@H](Cc2ccc(O)cc2)C(=O)N(C)[C@@H](C)C(=O)N[C@@H](CC(N)=O)C(=O)N2CCC[C@H]2C(=O)N[C@@H](CNC(=S)NCC)C(=O)N[C@@H](CC(C)C)C(=O)N2C[C@H](O)C[C@H]2C(=O)N[C@@H](Cc2c[nH]c3ccccc23)C(=O)N[C@@H](CCNC(=S)NCC)C(=O)N[C@@H](Cc2cn(CC(=O)O)c3ccccc23)C(=O)N1C` [Example 1026] ({CH2CO}-Y[NMeA]NP[X14]L[Hyp]W[X15][Trp(1-CH2COOH)][NMeNle][NMeNle]LCG-NH2; thioether N-14) has a pIC50 of 8.35.
For `CCCC[C@H]1C(=O)N(C)[C@@H](CCCC)C(=O)N[C@@H](CC(C)C)C(=O)N[C@H](C(=O)NCC(N)=O)CSCC(=O)N[C@@H](Cc2ccc(O)cc2)C(=O)N(C)[C@@H](C)C(=O)N[C@H](CC(N)=O)C(=O)N2CCC[C@H]2C(=O)N[C@@H](CNC(=S)NC)C(=O)N[C@@H](CC(C)C)C(=O)N2C[C@H](O)C[C@H]2C(=O)N[C@@H](Cc2c[nH]c3ccccc23)C(=O)N[C@@H](CCNC(=S)NC)C(=O)N[C@@H](Cc2cn(CC(=O)O)c3ccccc23)C(=O)N1C` [Example 1027] ({CH2CO}-Y[NMeA][dN]P[X11]L[Hyp]W[X12][Trp(1-CH2COOH)][NMeNle][NMeNle]LCG-NH2; thioether N-14), the pIC50 was 8.70.
Work on `CCCC[C@H]1C(=O)N(C)[C@@H](CCCC)C(=O)N[C@@H](CC(C)C)C(=O)N[C@H](C(=O)NCC(N)=O)CSCC(=O)N[C@@H](Cc2ccc(O)cc2)C(=O)N(C)[C@@H](C)C(=O)N[C@@H](CC(N)=O)C(=O)N2CCC[C@H]2C(=O)N[C@@H](CNC(=O)NCC)C(=O)N[C@@H](CC(C)C)C(=O)N2C[C@H](O)C[C@H]2C(=O)N[C@@H](Cc2c[nH]c3ccccc23)C(=O)N[C@@H](CCNC(=O)NCC)C(=O)N[C@@H](Cc2cn(CC(=O)O)c3ccccc23)C(=O)N1C` [Example 1029] ({CH2CO}-Y[NMeA]NP[Dap]([CO-NHEt])L[Hyp]W[Dab]([CO-NHEt])[Trp(1-CH2COOH)][NMeNle][NMeNle]LCG-NH2; thioether N-14) yielded a pIC50 of 8.31.
